In patent US9113629B2, “4-amino-6-(4-substituted-phenyl)-picolinates and 6-amino-2-(4-substituted-phenyl)-pyrimidine-4-carboxylates and their use as herbicides” (DOW AGROSCIENCES LLC, priority 2013, dated 2015):
Read-outs that look alike come from different tables or passages of the source.

Legend:
[1] = test system: Key Broadleaf Weed and Crop Species; assay: Post-emergent Test II herbicidal activity (Table 5); format: in vivo; conditions: post-emergence, 336 h, post-emergent, 14 days after application; for pest or weed control at 70 g/ha: 70 g ai/ha; for pest or weed control at 140 g/ha: 140 g ai/ha
In short: (§1)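 Scoring: visual, 0–100% injury at 14 d versus untreated. Treatment: overhead track spray, 187 L/ha, onto plants at the first–second true leaf stage. Growth: greenhouse, ~15 h light, 23–29 °C day, 22–28 °C night.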

[2] = test system: Key Grass and Sedge Weeds as well as Grass Crops; assay: Post-emergent Test II herbicidal activity (Table 6); format: in vivo; conditions: post-emergence, 336 h; for pest or weed control at 70 g/ha: application rate 70 g ai/ha; for pest or weed control at 140 g/ha: application rate 140 g ai/ha
In short: as §1

[3] = ABUTH: velvetleaf (Abutilon theophrasti), read-out: Visual Growth Reduction (%) 14 Days After Application ABUTH
[4] = AMARE: redroot pigweed (Amaranthus retroflexus), read-out: Visual Growth Reduction (%) 14 Days After Application AMARE
[5] = BRSNN: oilseed-rape, canola (Brassica napus), read-out: Visual Growth Reduction (%) 14 Days After Application BRSNN
[6] = CHEAL: lambsquarters (Chenopodium album), read-out: Visual Growth Reduction (%) 14 Days After Application CHEAL
[7] = EPHHL: wild poinsettia (Euphorbia heterophylla), read-out: Visual Growth Reduction (%) 14 Days After Application EPHHL
[8] = HELAN: sunflower (Helianthus annuus), read-out: Visual Growth Reduction (%) 14 Days After Application HELAN
[9] = VIOTR: wild pansy (Viola tricolor), read-out: Visual Growth Reduction (%) 14 Days After Application VIOTR
[10] = Triticum aestivum, TRZSS (wheat), read-out: Visual Growth Reduction (%) 14 Days After Application, TRZSS
[11] = CYPES: yellow nutsedge (Cyperus esculentus), read-out: Visual Growth Reduction (%) 14 Days After Application, CYPES
[12] = DIGSA: crabgrass (Digitaria sanguinalis), read-out: Visual Growth Reduction (%) 14 Days After Application, DIGSA
[13] = ECHCG: barnyardgrass (Echinochloa crus-galli), read-out: Visual Growth Reduction (%) 14 Days After Application, ECHCG
[14] = ORYSA: rice (Oryza sativa), read-out: Visual Growth Reduction (%) 14 Days After Application, ORYSA
[15] = SETFA: giant foxtail (Setaria faberi), read-out: Visual Growth Reduction (%) 14 Days After Application, SETFA
[16] = SORVU: grain sorghum (Sorghum vulgare), read-out: Visual Growth Reduction (%) 14 Days After Application, SORVU
[17] = ZEAMX: maize, corn (Zea mays), read-out: Visual Growth Reduction (%) 14 Days After Application, ZEAMX

| SMILES | pest or weed control at 70 g/ha [1, 3] [%] | pest or weed control at 140 g/ha [1, 3] [%] | pest or weed control at 70 g/ha [1, 4] [%] | pest or weed control at 140 g/ha [1, 4] [%] | pest or weed control at 70 g/ha [1, 5] [%] | pest or weed control at 140 g/ha [1, 5] [%] | pest or weed control at 70 g/ha [1, 6] [%] | pest or weed control at 140 g/ha [1, 6] [%] | pest or weed control at 70 g/ha [1, 7] [%] | pest or weed control at 140 g/ha [1, 7] [%] | pest or weed control at 70 g/ha [1, 8] [%] | pest or weed control at 140 g/ha [1, 8] [%] | pest or weed control at 70 g/ha [1, 9] [%] | pest or weed control at 140 g/ha [1, 9] [%] | pest or weed control at 70 g/ha [2, 10] [%] | pest or weed control at 140 g/ha [2, 10] [%] | pest or weed control at 70 g/ha [2, 11] [%] | pest or weed control at 140 g/ha [2, 11] [%] | pest or weed control at 70 g/ha [2, 12] [%] | pest or weed control at 140 g/ha [2, 12] [%] | further results |
| --- | --- | --- | --- | --- | --- | --- | --- | --- | --- | --- | --- | --- | --- | --- | --- | --- | --- | --- | --- | --- | --- |
| COC(=O)c1nc(-c2ccc(C(N)=O)cc2)c(F)c(N)c1Cl [Compound 192] | 0 to 29 | 0 to 29 | 0 to 29 | 0 to 29 | 0 to 29 | 0 to 29 | 0 to 29 | 0 to 29 | 0 to 29 | 0 to 29 | 0 to 29 | 0 to 29 | 0 to 29 | 0 to 29 | 0 to 29 | 0 to 29 | 0 to 29 | 0 to 29 | 0 to 29 | 0 to 29 | pest or weed control at 70 g/ha [2, 13]: 0 to 29%; pest or weed control at 140 g/ha [2, 13]: 0 to 29%; pest or weed control at 70 g/ha [2, 14]: 0 to 29%; pest or weed control at 140 g/ha [2, 14]: 0 to 29%; pest or weed control at 70 g/ha [2, 15]: 0 to 29%; pest or weed control at 140 g/ha [2, 15]: 0 to 29%; pest or weed control at 70 g/ha [2, 16]: 0 to 29%; pest or weed control at 140 g/ha [2, 16]: 0 to 29%; pest or weed control at 70 g/ha [2, 17]: 0 to 29%; pest or weed control at 140 g/ha [2, 17]: 0 to 29%; melting point: 192 to 195 °C |
| COC(=O)c1nc(-c2cc(F)c(F)cc2F)c(F)c(N)c1Cl [Compound 200, Methyl 4-amino-3-chloro-5-fluoro-6-(2,4,5-trifluorophenyl)picolinate] | 95 to 100 | 95 to 100 | 95 to 100 | 95 to 100 | 95 to 100 | 95 to 100 | 95 to 100 | 95 to 100 | 95 to 100 | 95 to 100 | 85 to 94 | 95 to 100 | 75 to 84 | 95 to 100 | 30 to 44 | 30 to 44 | 0 to 29 | 45 to 59 | 75 to 84 | 75 to 84 | pest or weed control at 70 g/ha [2, 13]: 75 to 84%; pest or weed control at 140 g/ha [2, 13]: 75 to 84%; pest or weed control at 70 g/ha [2, 14]: 0 to 29%; pest or weed control at 140 g/ha [2, 14]: 0 to 29%; pest or weed control at 70 g/ha [2, 15]: 45 to 59%; pest or weed control at 140 g/ha [2, 15]: 75 to 84%; pest or weed control at 70 g/ha [2, 16]: 0 to 29%; pest or weed control at 140 g/ha [2, 16]: 0 to 29%; pest or weed control at 70 g/ha [2, 17]: 45 to 59%; pest or weed control at 140 g/ha [2, 17]: 60 to 74%; melting point: 143.5 to 144.5 °C |
